Test results taken from patent US10792365B2, “Peptide derivative and use thereof” (Toray Industries, Inc., priority 2016, dated 2020).
Counter-ions that a name gives are not always drawn. Like-named read-outs stand apart in the source and are kept apart here.

Legend:
SKOV-3 cells [1] = assay: In vitro cytotoxicity of the peptide derivative (I), MTS method, SKOV-3 cells; type: cell-based, human
Text: (§1) The cytotoxicity of the peptide derivative (I) or a pharmaceutically acceptable salt thereof, or the conjugate including the peptide derivative (I) or a pharmaceutically acceptable salt thereof can be evaluated with an in vitro study. Examples of the in vitro studies include the trypan blue dye exclusion method, the lactate dehydrogenase (LDH) activity assay, [^3H]thymidine incorporation method, or propidium iodide nuclear stain that each measures the number of dead cells or surviving cells post treated with the compound; a method using dyes such as MTT, MTS, and WST (Current Protocol in Toxicology, (2000), 2.6.1-2.6.27); or a method in which the amount of ATP is measured using CellTiter-Glow (Promega Corporation) and the like, and preferably include the method in which the number of surviving cells post treated with the compound is measured by using the MTS method to determine values of the cytotoxicity at that time from 50% effect-concentration (EC50). Furthermore, in the evaluation of the cytotoxicity of the conjugate including the peptide derivative (I) or a pharmaceutically acceptable salt thereof, preferred method is the one that for a certain time, cells are treated with a medium containing the compound, the cells are then transferred to a medium not containing the compound, and the number of surviving cells are measured after cultivation for additional certain time (Bioconjugate Chemistry., 2014; 25: pp. 560-568). For the in vitro studies, human ovarian cancer cell SKOV-3 cells, human alveolar basement epithelial gland cancer cell A549 cells, mouse lymphocytic leukocyte L1210 cells and the like are used.

L1210 cells [2] = assay: In vitro cytotoxicity of the peptide derivative (I), MTS method, L1210 cells; type: cell-based, mouse
Text: as §1

A549 cells [3] = assay: In vitro cytotoxicity of the peptide derivative (I), MTS method, A549 cells; type: cell-based, human
Text: as §1

[4] = Parallel Artificial Membrane Permeation Assay (PAMPA), Pre-coated PAMPA Plate System (Corning); conditions: for Membrane Permeability Coefficient: 200 μmol/L in PBS containing 20% of methanol, room temperature, five hours, N.D. = Acceptor side concentration less than lower limit of determinate quantity
Method: Reference Example 14, the Compound of Reference Example 16, and the Compound of Comparative Example was Evaluated by Using Pre-Coated PAMPA PlateSystem (Corning)
A frozen-stored, Pre-coated PAMPA Plate System was allowed to stand at room temperature for thirty minutes or more. Subsequently, 320 μL of the standard solution was added to a Donor side plate of Pre-coated PAMPA Plate System, and 200 μL of the PBS containing 20% of methanol was added to an Acceptor side plate. Both of the plates were set for the system, and the plates allowed to stand at room temperature for five hours. The reaction liquid in each well of the Donor side and Acceptor side plates was subjected to LC/MS analysis (hereinafter, LC/MS-3), and the concentration of the compounds in each well calculated.
Using the obtained concentration of the compounds in the reaction liquid in each well, the membrane permeability coefficients (Pe) (cm/s) were calculated by the following formula: Cequilibrium=[…] Pe=[−ln(1−CA/Cequilibrium)]/S×(1/VD+1/VA)×t Cequilibrium: Equilibrium concentration of the wells in the Donor side and Acceptor side plates CD: Concentration after five hours of the wells in the Donor side plate (mmol/L) VD: Volume of the standard solution added to the wells in the Donor side plate (0.32 mL) CA: Concentration after five hours of the wells in the Acceptor side plate (mmol/L) VA: Volume of the PBS containing 20% of methanol added to the wells in the Acceptor side plate (0.2 mL) S: Surface of the membrane (0.3 cm^2) t: Standing time 18,000 s (=5 hrs).

A549 cells [5] = type: cell-based, human; conditions: 48 h
Method: (§2) The compound of Example 12 and the compound of Example 13 were measured for cytotoxicity thereof on SKOV-3 cells, A549 cells, and L1210 cells by using MTS method.
(§3) An evaluation method of the compound of Example 12 is as follows: To each cell culturing in a medium that is absent of folate, the compound of Example 12 was treated for two hours, and then the cells transferred to a fresh medium absent of the compound and continuously maintained and cultured for 48 hours. Surviving cells after 48 hours were counted by using MTS method.
as §3, with “13” for “12”, “six” for “two”
(§4) It has been reported that SKOV-3 cells and L1210 cells express folate acceptors in medium to high expression level on their cell surface. It has been reported that A549 cells express folate acceptors in low expression level or undetectable level on its cell surface (Analytical Biochemistry, (2005), 338: pp. 284-293; Molecular Cancer Therapeutics, (2015), 14: pp. 1605 to 13).

SKOV-3 cells [6] = type: cell-based, human; conditions: 48 h
Method: as §2, §3
as §3, with “13” for “12”, “six” for “two”
as §4

L1210 cells [7] = type: cell-based, mouse; conditions: 48 h
Method: as §2, §3
as §3, with “13” for “12”, “six” for “two”
as §4

## CC[C@H](C)[C@@H]([C@@H](CC(=O)N1CCC[C@H]1[C@H](OC)[C@@H](C)C(=O)N[C@@H](Cc1ccccc1)c1nc(C(=O)NCCc2ccc(O)cc2)cs1)OC)N(C)C(=O)[C@@H](NC(=O)[C@H](C(C)C)N(C)C)C(C)C [Example 11, 2-((S)-1-((2R,3R)-3-((S)-1-((3R,4S,5S)-4-((S)-2-((S)-2-(dimethylamino)-3-methylbutanamido)-N,3-dimethylbutanamido)-3-methoxy-5-methylheptanoyl)pyrrolidin-2-yl)-3-methoxy-2-methylpropanamido)-2-phenylethyl)-N-(4-hydroxyphenethyl)thiazole-4-carboxamide]
SKOV-3 cells [1]; Homo sapiens, SK-OV-3
  EC50: 0.37 nM
L1210 cells [2]; Mus musculus
  EC50: 5.61 nM
A549 cells [3]; Homo sapiens
  EC50: 1.31 nM
[4]
  Papp at 5 h, 200 μmol/L: 0.36 ×10⁻⁶ cm/s

## CC[C@H](C)[C@@H]([C@@H](CC(=O)N1CCC[C@H]1[C@H](OC)[C@@H](C)C(=O)N[C@@H](Cc1ccccc1)c1nc(C(=O)N(C)CCO)cs1)OC)N(C)C(=O)[C@@H](NC(=O)[C@H](C(C)C)N(C)C)C(C)C [Example 9]
SKOV-3 cells [1]; Homo sapiens, SK-OV-3
  EC50: 1.5 nM
L1210 cells [2]; Mus musculus
  EC50: 8.52 nM
A549 cells [3]; Homo sapiens
  EC50: 1.64 nM
[4]
  Papp at 5 h, 200 μmol/L: 0.08 ×10⁻⁶ cm/s

## CC[C@H](C)[C@@H]([C@@H](CC(=O)N1CCC[C@H]1[C@H](OC)[C@@H](C)C(=O)N[C@@H](Cc1ccccc1)c1nc(C(=O)NCCN)cs1)OC)N(C)C(=O)[C@@H](NC(=O)[C@H](C(C)C)N(C)C)C(C)C [Reference Example 12, N-(2-aminoethyl)-2-((S)-1-(((2S,3R)-3-((S)-1-((3R,4S,5S)-4-((S)-2-((S)-2-(dimethylamino)-3-methylbutanamido)-N, 3-dimethylbutanamido)-3-methoxy-5-methylheptanoyl)pyrrolidin-2-yl)-3-methoxy-2-methylpropanamido)-2-phenylethyl)thiazole-4-carboxamidedihydrochloride, reference compound]
SKOV-3 cells [1]; Homo sapiens, SK-OV-3
  EC50: > 10 nM
L1210 cells [2]; Mus musculus
  EC50: > 50 nM
A549 cells [3]; Homo sapiens
  EC50: > 10 nM
[4]
  Papp at 5 h, 200 μmol/L: 0.01 ×10⁻⁶ cm/s

## CC[C@H](C)[C@@H]([C@@H](CC(=O)N1CCC[C@H]1[C@H](OC)[C@@H](C)C(=O)N[C@@H](Cc1ccccc1)c1nc(C(=O)N(C)CCS)cs1)OC)N(C)C(=O)[C@@H](NC(=O)[C@H](C(C)C)N(C)C)C(C)C [Example 3]
SKOV-3 cells [1]; Homo sapiens, SK-OV-3
  EC50: 1.05 nM
L1210 cells [2]; Mus musculus
  EC50: 6.96 nM
A549 cells [3]; Homo sapiens
  EC50: 1.22 nM
[4]
  Papp at 5 h, 200 μmol/L: 1.14 ×10⁻⁶ cm/s

## CC[C@H](C)[C@@H]([C@@H](CC(=O)N1CCC[C@H]1[C@H](OC)[C@@H](C)C(=O)N[C@@H](Cc1ccccc1)c1nc(C(=O)N(C)CCN)cs1)OC)N(C)C(=O)[C@@H](NC(=O)[C@H](C(C)C)N(C)C)C(C)C [Example 5, N-(2-aminoethyl)-2-((S)-1-((2R,3R)-3-((S)-1-((3R,4S,5S)-4-((S)-2-((S)-2-(dimethylamino)-3-methylbutanamido)-N,3-dimethylbutanamido)-3-methoxy-5-methylheptanoyl)pyrrolidin-2-yl)-3-methoxy-2-methylpropanamido)-2-phenylethyl)-N-methylthiazole-4-carboxamide dihydro chloride]
SKOV-3 cells [1]; Homo sapiens, SK-OV-3
  EC50: 0.56 nM
L1210 cells [2]; Mus musculus
  EC50: 11.7 nM
A549 cells [3]; Homo sapiens
  EC50: 0.81 nM
[4]
  Papp at 5 h, 200 μmol/L: 0.01 ×10⁻⁶ cm/s

## CC[C@H](C)[C@@H]([C@@H](CC(=O)N1CCC[C@H]1[C@H](OC)[C@@H](C)C(=O)N[C@@H](Cc1ccccc1)c1nc(C(=O)OCCN)cs1)OC)N(C)C(=O)[C@@H](NC(=O)[C@H](C(C)C)N(C)C)C(C)C [Example 4]
SKOV-3 cells [1]; Homo sapiens, SK-OV-3
  EC50: 0.85 nM
L1210 cells [2]; Mus musculus
  EC50: 28.7 nM
A549 cells [3]; Homo sapiens
  EC50: 0.83 nM
[4]
  Papp at 5 h, 200 μmol/L: 0.01 ×10⁻⁶ cm/s

## CC[C@H](C)C([C@@H](CC(=O)N1CCC[C@H]1[C@H](OC)[C@@H](C)C(=O)N[C@@H](Cc1ccccc1)c1nc(C(=O)N(C)CCSSCCN(C)C(=O)CCOCCOCCOCCOCCOCCOCCOCCOCCOCCOCCOCCOCCNC(=O)CCN2C(=O)CC(SCCNC(=O)[C@H](CCC(=O)O)NC(=O)CC[C@H](NC(=O)c3ccc(NCc4c[nH]c5nc(N)nc(=O)c-5n4)cc3)C(=O)O)C2=O)cs1)OC)N(C)C(=O)[C@@H](NC(=O)[C@H](C(C)C)N(C)C)C(C)C (stereo in doubt) [Example 13]
A549 cells [5]
  EC50: > 300 nM
SKOV-3 cells [6]
  EC50: 19.4 nM
L1210 cells [7]
  EC50: 36 nM

## CC[C@H](C)[C@@H]([C@@H](CC(=O)N1CCC[C@H]1[C@H](OC)[C@@H](C)C(=O)N[C@@H](Cc1ccccc1)c1nc(C(=O)O)cs1)OC)N(C)C(=O)[C@@H](NC(=O)[C@H](C(C)C)N(C)C)C(C)C [Reference Example 1, 2-((S)-1-((2R,3R)-3-((S)-1-((3R,4S,5S)-4-((S)-2-((S)-2-(dimethylamino)-3-methylbutanamido)-N,3-dimethylbutanamido)-3-methoxy-5-methylheptanoyl)pyrrolidin-2-yl)-3-methoxy-2-methylpropanamido)-2-phenylethyl)thiazole-4-carboxylic acid, reference compound]
SKOV-3 cells [1]; Homo sapiens, SK-OV-3
  EC50: > 10 nM
L1210 cells [2]; Mus musculus
  EC50: > 50 nM
A549 cells [3]; Homo sapiens
  EC50: > 10 nM
[4]
  Membrane Permeability Coefficient: 0.01 10^−6 cm/s

## CCNC(=O)c1csc([C@H](Cc2ccccc2)NC(=O)[C@@H](C)[C@@H](OC)[C@@H]2CCCN2C(=O)C[C@@H](OC)[C@H]([C@@H](C)CC)N(C)C(=O)[C@@H](NC(=O)[C@H](C(C)C)N(C)C)C(C)C)n1 [Comparative Example, reference compound]
SKOV-3 cells [1]
  EC50: 0.55 nM
L1210 cells [2]
  EC50: 6.51 nM
A549 cells [3]
  EC50: 0.74 nM
[4]
  Membrane Permeability Coefficient: 1.68 10^−6 cm/s

## CC[C@H](C)[C@@H]([C@@H](CC(=O)N1CCC[C@H]1[C@H](OC)[C@@H](C)C(=O)N[C@@H](Cc1ccccc1)c1nc(C(=O)NCCO)cs1)OC)N(C)C(=O)[C@@H](NC(=O)[C@H](C(C)C)N(C)C)C(C)C [Example 7]
SKOV-3 cells [1]; Homo sapiens, SK-OV-3
  EC50: 4.67 nM
L1210 cells [2]; Mus musculus
  EC50: 28.4 nM
A549 cells [3]; Homo sapiens
  EC50: 1.74 nM
[4]
  Papp at 5 h, 200 μmol/L: 0.02 ×10⁻⁶ cm/s
